Assay: xn = mol fraction of the nth substance listed
Conditions: 100 kPa

CC[n+]1ccn(C)c1.O=S(=O)([N-]S(=O)(=O)C(F)(F)F)C(F)(F)F + CCOC(C)=O
Conditions | speed of sound [m/s] | viscosity [mPa·s]
298.15 K, x2 = 0 | 1240.2 | 32.49
298.15 K, x2 = 0.0986 | 1232.6 | 25
298.15 K, x2 = 0.1858 | 1225.5 | 20.15
298.15 K, x2 = 0.2977 | 1215.3 | 14.83
298.15 K, x2 = 0.3962 | 1203.4 | 10.88
298.15 K, x2 = 0.5051 | 1189.2 | 7.63
298.15 K, x2 = 0.5961 | 1180.3 | 5.44
298.15 K, x2 = 0.6909 | 1171.1 | 3.77
298.15 K, x2 = 0.7974 | 1158.2 | 2.24
298.15 K, x2 = 0.8979 | 1147.7 | 0.93
303.15 K, x2 = 0 | 1229.3 | 27.68
303.15 K, x2 = 0.0986 | 1221.4 | 21.28
303.15 K, x2 = 0.1858 | 1213.9 | 17.32
303.15 K, x2 = 0.5051 | 1175.9 | 6.47
303.15 K, x2 = 0.6909 | 1155.8 | 3.31
308.15 K, x2 = 0.0986 | 1210.4 | 18.31
308.15 K, x2 = 0.1858 | 1202.6 | 14.96
308.15 K, x2 = 0.3962 | 1178.5 | 8.3
308.15 K, x2 = 0.5051 | 1162.7 | 5.78
308.15 K, x2 = 0.5961 | 1151.7 | 4.15
308.15 K, x2 = 0.6909 | 1139.5 | 2.78
308.15 K, x2 = 0.7974 | 1123.4 | 1.63
308.15 K, x2 = 0.8979 | 1109 | 0.83
313.15 K, x2 = 0 | 1207.9 | 20.16
313.15 K, x2 = 0.0986 | 1199.5 | 15.97
313.15 K, x2 = 0.1858 | 1191.4 | 13.01
313.15 K, x2 = 0.2977 | 1179.8 | 9.91
313.15 K, x2 = 0.5961 | 1137.9 | 3.71
313.15 K, x2 = 0.6909 | 1124.4 | 2.48
313.15 K, x2 = 0.7974 | 1106.4 | 1.47
313.15 K, x2 = 0.8979 | 1089.8 | 0.8
318.15 K, x2 = 0 | 1197.3 | 17.48
318.15 K, x2 = 0.0986 | 1188.6 | 14
318.15 K, x2 = 0.2977 | 1168.3 | 8.8
318.15 K, x2 = 0.5961 | 1123.8 | 3.27
318.15 K, x2 = 0.6909 | 1109.4 | 2.3
318.15 K, x2 = 0.7974 | 1089.2 | 1.29
323.15 K, x2 = 0 | 1187 | 15.34
323.15 K, x2 = 0.0986 | 1178.9 | 12.36
323.15 K, x2 = 0.1858 | 1169.7 | 10.19
323.15 K, x2 = 0.2977 | 1156.8 | 7.87
323.15 K, x2 = 0.3962 | 1142.5 | 5.82
323.15 K, x2 = 0.5051 | 1124 | 3.9
323.15 K, x2 = 0.5961 | 1110 | 2.94
323.15 K, x2 = 0.7974 | 1071.9 | 1.16
323.15 K, x2 = 0.8979 | 1051.6 | 0.7

CCOC(C)=O + CC[n+]1ccn(C)c1.O=S(=O)([N-]S(=O)(=O)C(F)(F)F)C(F)(F)F
x1 = 1
Conditions | speed of sound [m/s] | viscosity [mPa·s]
298.15 K | 1140.8 | 0.42
308.15 K | 1096 | 0.38
313.15 K | 1073.7 | 0.36
318.15 K | 1051.7 | 0.35
323.15 K | 1029.5 | 0.33

CO + CC[n+]1ccn(C)c1.O=S(=O)([N-]S(=O)(=O)C(F)(F)F)C(F)(F)F
x1 = 1
Conditions | speed of sound [m/s] | viscosity [mPa·s]
303.15 K | 1086.9 | 0.51
313.15 K | 1054.5 | 0.45
323.15 K | 1022.5 | 0.41

CC[n+]1ccn(C)c1.O=S(=O)([N-]S(=O)(=O)C(F)(F)F)C(F)(F)F + CO
Conditions | speed of sound [m/s] | viscosity [mPa·s]
298.15 K, x2 = 0 | 1240.2 | 32.49
298.15 K, x2 = 0.0938 | 1236.3 | 26.33
298.15 K, x2 = 0.1965 | 1231.5 | 20.39
298.15 K, x2 = 0.2889 | 1225.3 | 15.83
298.15 K, x2 = 0.4005 | 1217.3 | 11.82
298.15 K, x2 = 0.5088 | 1207.8 | 8.77
298.15 K, x2 = 0.6909 | 1177.9 | 4.64
298.15 K, x2 = 0.7961 | 1159.9 | 2.86
298.15 K, x2 = 0.8978 | 1132.9 | 1.55
303.15 K, x2 = 0 | 1229.3 | 27.68
303.15 K, x2 = 0.0938 | 1225.2 | 22.39
303.15 K, x2 = 0.1965 | 1220.1 | 17.79
303.15 K, x2 = 0.2889 | 1214.2 | 13.73
303.15 K, x2 = 0.4005 | 1206.3 | 10.47
303.15 K, x2 = 0.5088 | 1196.7 | 7.7
303.15 K, x2 = 0.5988 | 1183.4 | 5.82
303.15 K, x2 = 0.6909 | 1166.9 | 4.25
303.15 K, x2 = 0.7961 | 1147.4 | 2.61
303.15 K, x2 = 0.8978 | 1120.1 | 1.43
308.15 K, x2 = 0 | 1218.5 | 23.29
308.15 K, x2 = 0.0938 | 1214.6 | 19.27
308.15 K, x2 = 0.1965 | 1208.9 | 15.16
308.15 K, x2 = 0.2889 | 1203.2 | 12.01
308.15 K, x2 = 0.5088 | 1185.5 | 6.82
308.15 K, x2 = 0.5988 | 1172.4 | 5.22
308.15 K, x2 = 0.6909 | 1154.9 | 3.84
308.15 K, x2 = 0.7961 | 1135.5 | 2.37
313.15 K, x2 = 0 | 1207.9 | 20.16
313.15 K, x2 = 0.0938 | 1203.9 | 16.71
313.15 K, x2 = 0.1965 | 1197.9 | 13.25
313.15 K, x2 = 0.2889 | 1192.3 | 10.57
313.15 K, x2 = 0.5988 | 1161.2 | 4.65
313.15 K, x2 = 0.7961 | 1122.7 | 2.16
313.15 K, x2 = 0.8978 | 1094.6 | 1.22
318.15 K, x2 = 0 | 1197.3 | 17.48
318.15 K, x2 = 0.0938 | 1193.3 | 14.63
318.15 K, x2 = 0.2889 | 1181.6 | 9.38
318.15 K, x2 = 0.4005 | 1173.4 | 7.26
318.15 K, x2 = 0.5088 | 1163.5 | 5.47
318.15 K, x2 = 0.5988 | 1150.2 | 4.22
318.15 K, x2 = 0.6909 | 1131.2 | 3.13
318.15 K, x2 = 0.7961 | 1110.4 | 1.98
318.15 K, x2 = 0.8978 | 1082 | 1.13
323.15 K, x2 = 0 | 1187 | 15.34
323.15 K, x2 = 0.0938 | 1182.8 | 12.94
323.15 K, x2 = 0.1965 | 1176.2 | 10.42
323.15 K, x2 = 0.2889 | 1170.9 | 8.38
323.15 K, x2 = 0.4005 | 1162.8 | 6.56
323.15 K, x2 = 0.5088 | 1152.6 | 4.94
323.15 K, x2 = 0.5988 | 1139.3 | 3.86
323.15 K, x2 = 0.6909 | 1119.6 | 2.87
323.15 K, x2 = 0.8978 | 1069.4 | 1.05

From a compilation of properties of binary mixtures (doi:10.1016/j.molliq.2016.09.077)
